Assay: Patient incidence of adverse events (CTCAE version 4.0)
Assay type: in vivo
Conditions: dose escalation
Excerpt: Each patient was monitored for 21 days for the occurrence of dose-limiting toxicities (DLTs), defined as febrile neutropenia, neutropenic infection, grade 4 neutropenia lasting >7 days, grade ≥ 3 thrombocytopenia lasting >7 days (solid tumors only), grade 3 thrombocytopenia with grade ≥ 2 bleeding (solid tumors only), grade 3 or 4 thrombocytopenia with grade > 1 bleeding (multiple myeloma only), grade 4 thrombocytopenia (solid tumors only), or grade 4 thrombocytopenia lasting >14 days (multiple myeloma only), or as grade ≥ 3 nausea, vomiting, or diarrhea after support; grade 3 fatigue lasting >7 days; any other grade ≥ 3 adverse event (AE); grade ≥ 3 kidney injury (multiple myeloma only), or treatment-related AEs not returning to grade ≤ 1 (solid tumors only) per Common Terminology Criteria for Adverse Events (CTCAE), version 4.0. The MTD was defined as the maximum dose, at which the probability of a DLT was ≤25% in Part 1A and ≤ 33% in Parts 1B and 1C. Treatment continued until disease progression, intolerable toxicity, or withdrawal of consent.
AEs were recorded for all enrolled patients.

CC(C)[C@@H](CS(=O)(=O)C(C)C)N1C(=O)[C@@](C)(CC(=O)O)C[C@H](c2cccc(Cl)c2)[C@H]1c1ccc(Cl)cc1 [AMG 232]
Treatment-related serious AE: Dehydration (grade 2) (30 mg (n = 3)): 0 n (%)
Treatment-related serious AE: Diarrhea (30 mg (n = 3)): 0 n (%)
Treatment-related serious AE: Diarrhea, Grade 2 (30 mg (n = 3)): 0 n (%)
Treatment-related serious AE: Diarrhea, Grade 3 (30 mg (n = 3)): 0 n (%)
Treatment-related serious AE: Febrile neutropenia (grade 3) (30 mg (n = 3)): 0 n (%)
Treatment-related serious AE: Hematemesis (grade 3) (30 mg (n = 3)): 0 n (%)
Treatment-related serious AE: Nausea (grade 3) (30 mg (n = 3)): 0 n (%)
Treatment-related serious AE: Neutropenia (grade 4) (30 mg (n = 3)): 0 n (%)
Treatment-related serious AE: Non-cardiac chest pain (grade 3) (30 mg (n = 3)): 0 n (%)
Treatment-related serious AE: Thrombocytopenia (grade 4) (30 mg (n = 3)): 0 n (%)
Treatment-related serious AE: Vomiting (30 mg (n = 3)): 0 n (%)
Treatment-related serious AE: Vomiting, Grade 2 (30 mg (n = 3)): 0 n (%)
Treatment-related serious AE: Vomiting, Grade 3 (30 mg (n = 3)): 0 n (%)
Patients with any treatment-emergent AE (60 mg (n = 4)): 4 (100) n (%)
Patients with any treatment-emergent serious AE (60 mg (n = 4)): 0 n (%)
Patients with any treatment-related AE (60 mg (n = 4)): 3 (75) n (%)
Patients with any treatment-related AE, Grade 3 (60 mg (n = 4)): 0 n (%)
Patients with any treatment-related AE, Grade 4 (60 mg (n = 4)): 0 n (%)
Patients with any treatment-related AE, Grade 5 (60 mg (n = 4)): 0 n (%)
Patients with any treatment-related serious AE (60 mg (n = 4)): 0 n (%)
Treatment-related AE: Abdominal pain (60 mg (n = 4)): 0 n (%)
Treatment-related AE: Anemia (60 mg (n = 4)): 0 n (%)
Treatment-related AE: Asthenia (60 mg (n = 4)): 0 n (%)
Treatment-related AE: Decrease appetite (60 mg (n = 4)): 1 (25) n (%)
Treatment-related AE: Diarrhea (60 mg (n = 4)): 1 (25) n (%)
Treatment-related AE: Dysgeusia (60 mg (n = 4)): 0 n (%)
Treatment-related AE: Fatigue (60 mg (n = 4)): 1 (25) n (%)
Treatment-related AE: Myalgia (60 mg (n = 4)): 0 n (%)
Treatment-related AE: Nausea (60 mg (n = 4)): 3 (75) n (%)
Treatment-related AE: Neutropenia (60 mg (n = 4)): 0 n (%)
Treatment-related AE: Thrombocytopenia (60 mg (n = 4)): 0 n (%)
Treatment-related AE: Upper abdominal pain (60 mg (n = 4)): 0 n (%)
Treatment-related AE: Vomiting (60 mg (n = 4)): 0 n (%)
Treatment-related serious AE: Abdominal pain (grade 2) (60 mg (n = 4)): 0 n (%)
Treatment-related serious AE: Dehydration (grade 2) (60 mg (n = 4)): 0 n (%)
Treatment-related serious AE: Diarrhea (60 mg (n = 4)): 0 n (%)
Treatment-related serious AE: Diarrhea, Grade 2 (60 mg (n = 4)): 0 n (%)
Treatment-related serious AE: Diarrhea, Grade 3 (60 mg (n = 4)): 0 n (%)
Treatment-related serious AE: Febrile neutropenia (grade 3) (60 mg (n = 4)): 0 n (%)
Treatment-related serious AE: Hematemesis (grade 3) (60 mg (n = 4)): 0 n (%)
Treatment-related serious AE: Nausea (grade 3) (60 mg (n = 4)): 0 n (%)
Treatment-related serious AE: Neutropenia (grade 4) (60 mg (n = 4)): 0 n (%)
Treatment-related serious AE: Non-cardiac chest pain (grade 3) (60 mg (n = 4)): 0 n (%)
Treatment-related serious AE: Thrombocytopenia (grade 4) (60 mg (n = 4)): 0 n (%)
Treatment-related serious AE: Vomiting (60 mg (n = 4)): 0 n (%)
Treatment-related serious AE: Vomiting, Grade 2 (60 mg (n = 4)): 0 n (%)
Treatment-related serious AE: Vomiting, Grade 3 (60 mg (n = 4)): 0 n (%)
Patients with any treatment-emergent AE (120 mg (n = 7)): 7 (100) n (%)
Patients with any treatment-emergent serious AE (120 mg (n = 7)): 3 (43) n (%)
Patients with any treatment-related AE (120 mg (n = 7)): 7 (100) n (%)
Patients with any treatment-related AE, Grade 3 (120 mg (n = 7)): 1 (14) n (%)
Patients with any treatment-related AE, Grade 4 (120 mg (n = 7)): 1 (14) n (%)
Patients with any treatment-related AE, Grade 5 (120 mg (n = 7)): 0 n (%)
Patients with any treatment-related serious AE (120 mg (n = 7)): 0 n (%)
Treatment-related AE: Abdominal pain (120 mg (n = 7)): 0 n (%)
Treatment-related AE: Anemia (120 mg (n = 7)): 0 n (%)
Treatment-related AE: Asthenia (120 mg (n = 7)): 0 n (%)
Treatment-related AE: Decrease appetite (120 mg (n = 7)): 2 (29) n (%)
Treatment-related AE: Diarrhea (120 mg (n = 7)): 3 (43) n (%)
Treatment-related AE: Dysgeusia (120 mg (n = 7)): 0 n (%)
Treatment-related AE: Fatigue (120 mg (n = 7)): 3 (43) n (%)
Treatment-related AE: Myalgia (120 mg (n = 7)): 1 (14) n (%)
Treatment-related AE: Nausea (120 mg (n = 7)): 3 (43) n (%)
Treatment-related AE: Neutropenia (120 mg (n = 7)): 0 n (%)
Treatment-related AE: Thrombocytopenia (120 mg (n = 7)): 1 (14) n (%)
Treatment-related AE: Upper abdominal pain (120 mg (n = 7)): 1 (14) n (%)
Treatment-related AE: Vomiting (120 mg (n = 7)): 2 (29) n (%)
Treatment-related serious AE: Abdominal pain (grade 2) (120 mg (n = 7)): 0 n (%)
Treatment-related serious AE: Dehydration (grade 2) (120 mg (n = 7)): 0 n (%)
Treatment-related serious AE: Diarrhea (120 mg (n = 7)): 0 n (%)
Treatment-related serious AE: Diarrhea, Grade 2 (120 mg (n = 7)): 0 n (%)
Treatment-related serious AE: Diarrhea, Grade 3 (120 mg (n = 7)): 0 n (%)
Treatment-related serious AE: Febrile neutropenia (grade 3) (120 mg (n = 7)): 0 n (%)
Treatment-related serious AE: Hematemesis (grade 3) (120 mg (n = 7)): 0 n (%)
Treatment-related serious AE: Nausea (grade 3) (120 mg (n = 7)): 0 n (%)
Treatment-related serious AE: Neutropenia (grade 4) (120 mg (n = 7)): 0 n (%)
Treatment-related serious AE: Non-cardiac chest pain (grade 3) (120 mg (n = 7)): 0 n (%)
Treatment-related serious AE: Thrombocytopenia (grade 4) (120 mg (n = 7)): 0 n (%)
Treatment-related serious AE: Vomiting (120 mg (n = 7)): 0 n (%)
Treatment-related serious AE: Vomiting, Grade 2 (120 mg (n = 7)): 0 n (%)
Treatment-related serious AE: Vomiting, Grade 3 (120 mg (n = 7)): 0 n (%)
Patients with any treatment-emergent AE (240 mg (n = 8)): 8 (100) n (%)
Patients with any treatment-emergent serious AE (240 mg (n = 8)): 4 (50) n (%)
Patients with any treatment-related AE (240 mg (n = 8)): 8 (100) n (%)
Patients with any treatment-related AE, Grade 3 (240 mg (n = 8)): 3 (38) n (%)
Patients with any treatment-related AE, Grade 4 (240 mg (n = 8)): 0 n (%)
Patients with any treatment-related AE, Grade 5 (240 mg (n = 8)): 0 n (%)
Patients with any treatment-related serious AE (240 mg (n = 8)): 2 (25) n (%)
Treatment-related AE: Abdominal pain (240 mg (n = 8)): 2 (25) n (%)
Treatment-related AE: Anemia (240 mg (n = 8)): 1 (13) n (%)
Treatment-related AE: Asthenia (240 mg (n = 8)): 1 (13) n (%)
Treatment-related AE: Decrease appetite (240 mg (n = 8)): 2 (25) n (%)
Treatment-related AE: Diarrhea (240 mg (n = 8)): 6 (75) n (%)
Treatment-related AE: Dysgeusia (240 mg (n = 8)): 2 (25) n (%)
Treatment-related AE: Fatigue (240 mg (n = 8)): 4 (50) n (%)
Treatment-related AE: Myalgia (240 mg (n = 8)): 0 n (%)
Treatment-related AE: Nausea (240 mg (n = 8)): 5 (63) n (%)
Treatment-related AE: Neutropenia (240 mg (n = 8)): 0 n (%)
Treatment-related AE: Thrombocytopenia (240 mg (n = 8)): 1 (13) n (%)
Treatment-related AE: Upper abdominal pain (240 mg (n = 8)): 1 (13) n (%)
Treatment-related AE: Vomiting (240 mg (n = 8)): 5 (63) n (%)
Treatment-related serious AE: Abdominal pain (grade 2) (240 mg (n = 8)): 1 (13) n (%)
Treatment-related serious AE: Dehydration (grade 2) (240 mg (n = 8)): 0 n (%)
Treatment-related serious AE: Diarrhea (240 mg (n = 8)): 1 (13) n (%)
Treatment-related serious AE: Diarrhea, Grade 2 (240 mg (n = 8)): 1 (13) n (%)
Treatment-related serious AE: Diarrhea, Grade 3 (240 mg (n = 8)): 0 n (%)
Treatment-related serious AE: Febrile neutropenia (grade 3) (240 mg (n = 8)): 0 n (%)
Treatment-related serious AE: Hematemesis (grade 3) (240 mg (n = 8)): 0 n (%)
Treatment-related serious AE: Nausea (grade 3) (240 mg (n = 8)): 1 (13) n (%)
Treatment-related serious AE: Neutropenia (grade 4) (240 mg (n = 8)): 0 n (%)
Treatment-related serious AE: Non-cardiac chest pain (grade 3) (240 mg (n = 8)): 1 (13) n (%)
Treatment-related serious AE: Thrombocytopenia (grade 4) (240 mg (n = 8)): 0 n (%)
Treatment-related serious AE: Vomiting (240 mg (n = 8)): 1 (13) n (%)
Treatment-related serious AE: Vomiting, Grade 2 (240 mg (n = 8)): 0 n (%)
Treatment-related serious AE: Vomiting, Grade 3 (240 mg (n = 8)): 1 (13) n (%)
Patients with any treatment-emergent AE (300 mg (n = 4)): 4 (100) n (%)
Patients with any treatment-emergent serious AE (300 mg (n = 4)): 2 (50) n (%)
Patients with any treatment-related AE (300 mg (n = 4)): 4 (100) n (%)
Patients with any treatment-related AE, Grade 3 (300 mg (n = 4)): 3 (75) n (%)
Patients with any treatment-related AE, Grade 4 (300 mg (n = 4)): 2 (50) n (%)
Patients with any treatment-related AE, Grade 5 (300 mg (n = 4)): 0 n (%)
Patients with any treatment-related serious AE (300 mg (n = 4)): 2 (50) n (%)
Treatment-related AE: Abdominal pain (300 mg (n = 4)): 1 (25) n (%)
Treatment-related AE: Anemia (300 mg (n = 4)): 0 n (%)
Treatment-related AE: Asthenia (300 mg (n = 4)): 1 (25) n (%)
Treatment-related AE: Decrease appetite (300 mg (n = 4)): 1 (25) n (%)
Treatment-related AE: Diarrhea (300 mg (n = 4)): 4 (100) n (%)
Treatment-related AE: Dysgeusia (300 mg (n = 4)): 1 (25) n (%)
Treatment-related AE: Fatigue (300 mg (n = 4)): 2 (50) n (%)
Treatment-related AE: Myalgia (300 mg (n = 4)): 0 n (%)
Treatment-related AE: Nausea (300 mg (n = 4)): 1 (25) n (%)
Treatment-related AE: Neutropenia (300 mg (n = 4)): 2 (50) n (%)
Treatment-related AE: Thrombocytopenia (300 mg (n = 4)): 3 (75) n (%)

From article PMC7211202 (Investigational New Drugs, 2019)
